Experimental data published in patent publication US20120244567A1, “HUMAN EMBRYONIC STEM CELLS FOR HIGH THROUGHOUT DRUG SCREENING” (BUCK INSTITUTE FOR RESEARCH ON AGING, priority 2009, published 2012).
Structures can show the parent of a compound that is named as a salt.

Assays:
[1] = system: human fetal-derived astrocytes; assay: Effect on human astrocytes (cell death); assay type: cell-based; details: up to 48 hours after treatment
Excerpt: Media was changed every other day and cells were passaged once a week at a 1:4 ratio.

hESC-derived NSCs = assay: ATP assay in hESC-derived NSCs (96-well, primary screen and retest); assay type: cell-based, human; parameters: cytotoxicity: dose or concentration left out as unconfirmed; toxicity to NSCs (reduced ATP concentrations) / ATP levels in NSC population: unit of the concentration uncertain
Description: EBs were then cultured for additional 2-3 days in suspension in neural induction media containing DMEM/F12 with Glutamax, 1×NEAA, 1×N2 and FGF2 (20 ng/ml) prior to attachment on cell culture plates. […] To obtain a pure population of NSCs, rosettes were manually isolated and dissociated into single cells using Accutase. The NSCs population was expanded in Neurobasal media containing 1×NEAA, 1×L-Glutamine (2 mM), 1×B27, LIF and FGF2 20 ng/ml.
Media was changed every day for hESCs and every other day for NSCs and additionally changed prior to drug treatment. The cells were treated with compounds from the NINDS library diluted in […] of either ESC or NSC media to a final concentration of 2.5 mM in 0.01% DMSO. […] For all sampling, ESC and NSC plates were processed in parallel for one drug or control condition at a time.
(§1) For ATP measurements, the media was removed, cells were washed 1× in milliQ water and reconstituted in […] ATP-Lite Mammalian Lysis Buffer and shaken for 5 minutes. Two […] aliquots of lysed cells were replated onto separate 96 well plates for later protein measurements.
(§2) To identify compounds that are toxic to hESCs, hESC-derived NSCs, or both, we screened 720 FDA-approved drugs of the NINDS collection by testing the toxicity of each drug at a dose of 2.5 mM. For endpoint measurement of cell death caused by drug toxicity, we used a widely accepted ATP assay that measures changes in ATP level as an indicator of cellular response to cell death. In this assay, total ATP content per well was measured and normalized to the total cellular protein.
Three concentrations of each compound (1 mM, 2.5 mM and 10 mM) were used in the retest.

hESCs = assay: ATP assay in hESCs (96-well); assay type: cell-based, human; parameters: dose or concentration left out as unconfirmed; details: 48 h (FIG. 5)
Description: Media was changed every day for hESCs and every other day for NSCs and additionally changed prior to drug treatment. […] […] For all sampling, ESC and NSC plates were processed in parallel for one drug or control condition at a time.
as §1, §2

CCCCc1oc2ccccc2c1C(=O)c1cc(I)c(OCCN(CC)CC)c(I)c1 [Amiodarone Hydrochloride]
astrocyte cell death [1]: did not cause astrocyte cell death | ATP levels in NSC population (hESC-derived NSCs; 10 (unit uncertain), 48 h (FIG. 5)): less than 15 % of the control mean | cytotoxicity (hESC-derived NSCs; Homo sapiens, NINDS primary screen, 48 hours, read-out: NSC ATP values below the control mean): ≥ 15% | effect on NSC survival among dose responsive compounds (hESC-derived NSCs; retest, FIG. 2 panel B): most dramatic effect on NSC survival | effect seen in hESC (ATP levels) (hESCs): intermediate between NSCs and dopaminergic neurons
